Data from patent US20240158446A1, “CYCLIC COMPOUND HAVING SELECTIVE INHIBITORY ACTION ON KRAS OVER HRAS AND NRAS” (CHUGAI SEIYAKU KABUSHIKI KAISHA, priority 2021, published 2024).
Read-outs that look alike come from different tables or passages of the source.

Legend:
[1] = biological target: GDP-bound KRAS wild-type protein (Homo sapiens, UniProt P01116); assay: Binding to KRAS by surface plasmon resonance (SPR), Single Cycle Kinetics; settings: GDP-bound KRAS wild-type protein, read-out: KRAS KD
Sequence of GDP-bound KRAS wild-type protein (P01116 whole entry): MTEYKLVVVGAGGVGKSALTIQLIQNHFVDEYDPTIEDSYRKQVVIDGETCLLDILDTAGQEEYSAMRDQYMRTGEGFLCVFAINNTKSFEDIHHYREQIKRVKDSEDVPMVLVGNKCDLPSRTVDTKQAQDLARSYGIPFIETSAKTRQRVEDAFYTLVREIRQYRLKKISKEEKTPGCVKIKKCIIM

[2] = biological target: GDP-bound NRAS wild-type protein (Homo sapiens, UniProt P01111); assay: Binding to NRAS by surface plasmon resonance (SPR), Single Cycle Kinetics; settings: for NRAS/KRAS (ratio of KD value for NRAS to KD value for KRAS) / ratio of the KD value with respect to GDP-bound NRAS wild-type protein to the KD value with respect to KRAS: SPR; for NRAS/KRAS (ratio of KD value for NRAS to KD value for KRAS): GDP-bound NRAS wild-type protein vs GDP-bound KRAS wild-type protein
Sequence of GDP-bound NRAS wild-type protein (P01111 whole entry): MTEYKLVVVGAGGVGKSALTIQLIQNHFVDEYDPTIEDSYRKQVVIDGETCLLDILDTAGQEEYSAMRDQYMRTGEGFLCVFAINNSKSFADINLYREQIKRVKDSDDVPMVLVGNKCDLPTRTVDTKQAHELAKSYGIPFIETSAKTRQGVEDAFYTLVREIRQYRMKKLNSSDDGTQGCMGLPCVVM

[3] = biological target: GDP-bound HRAS wild-type protein (Homo sapiens, UniProt P01112); assay: Binding to HRAS by surface plasmon resonance (SPR), Single Cycle Kinetics; settings: for HRAS/KRAS (ratio of KD value for HRAS to KD value for KRAS) / ratio of the KD value with respect to GDP-bound HRAS wild-type protein to the KD value with respect to KRAS: SPR; for HRAS/KRAS (ratio of KD value for HRAS to KD value for KRAS): GDP-bound HRAS wild-type protein vs GDP-bound KRAS wild-type protein
Sequence of GDP-bound HRAS wild-type protein (P01112 whole entry): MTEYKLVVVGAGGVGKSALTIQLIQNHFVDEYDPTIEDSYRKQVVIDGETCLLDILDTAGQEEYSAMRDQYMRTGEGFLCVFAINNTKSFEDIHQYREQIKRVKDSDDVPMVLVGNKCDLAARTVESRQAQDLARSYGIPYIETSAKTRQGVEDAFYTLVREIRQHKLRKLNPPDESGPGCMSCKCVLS

[4] = system: human lung cancer strain NCI-H441;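 also: cell proliferation inhibition after four days measured by CellTiter-Glo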
[5] = SPR, Single Cycle Kinetics, 1:1 binding model
[6] = read-out: NCI-H441 cell proliferation inhibitory activity, 50% proliferation inhibitory concentration (IC50 value), NCI-H441, four days, CellTiter-Glo

| Compound | Kd [1, 5] | NRAS/KRAS (ratio of KD value for NRAS to KD value for KRAS) ([2]; KD ratio class) | HRAS/KRAS (ratio of KD value for HRAS to KD value for KRAS) ([3]; KD ratio class) | IC50 [4] | Kd ([1]; SPR, Single Cycle Kinetics) | NRAS/KRAS (ratio of KD value for NRAS to KD value for KRAS) [2] | HRAS/KRAS (ratio of KD value for HRAS to KD value for KRAS) [3] | other results |
| --- | --- | --- | --- | --- | --- | --- | --- | --- |
| CCO[C@@H]1C[C@H]2C(=O)NC3(CCC3)C(=O)N(C)[C@@H](C3CCCC3)C(=O)N(C)[C@H](C(=O)N(C)C)CC(=O)N(C)[C@@H](CC3CC3)C(=O)N[C@@H]([C@@H](C)CC)C(=O)N(C)CC(=O)N(C)[C@H]3C/C=C\CCN(C3=O)[C@@H](Cc3ccc(F)cc3)C(=O)N(C)CC(=O)N[C@@H](CCc3cc(F)c(Cl)c(F)c3)C(=O)N2C1 [PP1479] | 0.49 nM | A (a compound having 10 or more and less than 20 is denoted as A) | B (a compound having 3 or more and less than 10 is denoted as B) | 140 nM | – | – | – | – |
| CC[C@H](C)[C@@H]1NC(=O)[C@@H]2CCCCCc3ccc(cc3)C[C@@H](C(=O)N(C)CC(=O)N[C@@H](CCc3ccc(C(F)(F)F)c(OC)c3)C(=O)N3C[C@H](OC4CCC4)C[C@H]3C(=O)NC3(CC(C)(C)C3)C(=O)N(C)[C@@H](C3CCCC3)C(=O)N(C)[C@H](C(=O)N(C)C)CC(=O)N2C)N2CC/C=C\C[C@@H](C2=O)N(C)C(=O)CN(C)C1=O [PP3073] | – | – | – | – | 0.025 nM | A (a compound having 10 or more and less than 20 is denoted as A) | A (a compound having 10 or more and less than 20 is denoted as A) | ratio of the KD value with respect to GDP-bound NRAS wild-type protein to the KD value with respect to KRAS [2]: A (a compound having 10 or more and less than 20 is denoted as A); ratio of the KD value with respect to GDP-bound HRAS wild-type protein to the KD value with respect to KRAS [3]: A (a compound having 10 or more and less than 20 is denoted as A); IC50 [4, 6]: 1.9 nM |
| CCOC[C@H]1C(=O)N[C@@H]([C@@H](C)CC)C(=O)N(C)CC(=O)N(C)[C@H]2C/C=C\CCN(C2=O)[C@@H](Cc2ccc(C)cc2)C(=O)N(C)CC(=O)N[C@@H](CCc2ccc(C(F)(F)F)c(Cl)c2)C(=O)N2C[C@H](OCC)C[C@H]2C(=O)NC2(CC(C)(C)C2)C(=O)N(C)[C@@H](C2CCCC2)C(=O)N(C)[C@H](C(=O)N(C)CC)CC(=O)N1C [PP2401] | – | – | – | 5.3 nM | 0.12 nM | A (a compound having 10 or more and less than 20 is denoted as A) | A (a compound having 10 or more and less than 20 is denoted as A) | – |
| CC[C@H](C)[C@@H]1NC(=O)[C@H](CC)N(C)C(=O)C[C@@H](C(=O)N(C)C)N(C)C(=O)[C@H](C2CCCC2)N(C)C(=O)C2(CCC2)NC(=O)[C@H](C)NC(=O)[C@H](CCc2cc(F)c(C(F)(F)F)c(F)c2)NC(=O)CN(C)C(=O)[C@H](Cc2ccc(C(F)(F)F)cc2)N2CC/C=C\C[C@@H](C2=O)N(C)C(=O)CN(C)C1=O [PP1140, (2S,8S,11S,17S,20S,24S,27S,33S,35Z)-17-cyclopentyl-8-[2-[3,5-difluoro-4-(trifluoromethyl)phenyl]ethyl]-24-ethyl-N,N,4,11,16,19,23,29,32-nonamethyl-27-[(1S)-1-methylpropyl]-3,6,9,12,15,18,22,25,28,31,39-undecaoxo-2-[[4-(trifluoromethyl)phenyl]methyl]spiro[1,4,7,10,13,16,19,23,26,29,32-undecazabicyclo[31.5.1]nonatriacont-35-ene-14,1′-cyclobutane]-20-carboxamide] | – | – | – | 1780 nM | 0.15 nM | A (a compound having 10 or more and less than 20 is denoted as A) | A (a compound having 10 or more and less than 20 is denoted as A) | – |
| CC[C@H](C)[C@@H]1NC(=O)[C@@H]2CCCCc3ccc(cc3)C[C@@H](C(=O)N(C)CC(=O)N[C@@H](CCc3ccc(C(F)(F)F)c(OC)c3)C(=O)N3C[C@H](OC4CCC4)C[C@H]3C(=O)NC3(CC(C)(C)C3)C(=O)N(C)[C@@H](C3CCCC3)C(=O)N(C)[C@H](C(=O)N(C)CC)CC(=O)N2C)N2CC/C=C\C[C@@H](C2=O)N(C)C(=O)CN(C)C1=O [PP3079] | – | – | – | 1.8 nM | 0.05 nM | A (a compound having 10 or more and less than 20 is denoted as A) | B (a compound having 3 or more and less than 10 is denoted as B) | ratio of the KD value with respect to GDP-bound NRAS wild-type protein to the KD value with respect to KRAS [2]: A (a compound having 10 or more and less than 20 is denoted as A); ratio of the KD value with respect to GDP-bound HRAS wild-type protein to the KD value with respect to KRAS [3]: B (a compound having 3 or more and less than 10 is denoted as B); IC50 [4, 6]: 1.8 nM |
| CCC[C@H]1C(=O)N[C@@H](CC(C)C)C(=O)N(CCOC)CC(=O)N(C)[C@H]2C/C=C\CCN(C2=O)[C@@H](Cc2ccc(C)cc2)C(=O)N(C)CC(=O)N[C@@H](CCc2ccc(C(F)(F)F)c(OC)c2)C(=O)N2C[C@H](OCC)C[C@H]2C(=O)NC2(CC(C)(C)C2)C(=O)N(C)[C@@H](C2CCCC2)C(=O)N(C)[C@H](C(=O)N(C)C)CC(=O)N1C [PP2522] | – | – | – | 113 nM | – | – | – | Kd ([1]; SPR Single Cycle Kinetics, 1:1 binding model): 3.2 nM; NRAS/KRAS (ratio of KD value with respect to GDP-bound NRAS wild-type protein to KD value with respect to KRAS) ([2]; SPR KD ratio NRAS/KRAS, class symbols): B (a compound having 3 or more and less than 10 is denoted as B); HRAS/KRAS (ratio of KD value with respect to GDP-bound HRAS wild-type protein to KD value with respect to KRAS) ([3]; SPR KD ratio HRAS/KRAS, class symbols): B (a compound having 3 or more and less than 10 is denoted as B) |
| CCC[C@H]1C(=O)N[C@@H](CC(C)C)C(=O)N(C2CC2)CC(=O)N(C)[C@H]2C/C=C\CCN(C2=O)[C@@H](Cc2ccc(C)cc2)C(=O)N(C)CC(=O)N[C@@H](CCc2cc(F)c(C(F)(F)F)c(F)c2)C(=O)N2C[C@H](OCC)C[C@H]2C(=O)NC2(CC(C)(C)C2)C(=O)N(C)[C@@H](C2CCCC2)C(=O)N(C)[C@H](C(=O)N(C)C)CC(=O)N1C [PP2508] | – | – | – | 124 nM | 3.4 nM | A (a compound having 10 or more and less than 20 is denoted as A) | B (a compound having 3 or more and less than 10 is denoted as B) | – |
| CCCOC[C@H]1C(=O)N[C@@H]([C@@H](C)CC)C(=O)N(C)CC(=O)N(C)[C@H]2C/C=C\CCN(C2=O)[C@@H](Cc2ccc(C)cc2)C(=O)N(C)CC(=O)N[C@@H](CCc2cc(F)c(C(F)(F)F)c(F)c2)C(=O)N2C[C@H](OCC)C[C@H]2C(=O)NC2(CC(C)(C)C2)C(=O)N(C)[C@@H](C2CCCC2)C(=O)N(C)[C@H](C(=O)N(C)C)CC(=O)N1C [PP1400, (2S,8S,12R,14S,20S,23S,27S,30S,36S,38Z)-20-cyclopentyl-8-[2-[3,5-difluoro-4-(trifluoromethyl)phenyl]ethyl]-12-ethoxy-N,N,3′,3′,4,19,22,26,32,35-decamethyl-30-[(1S)-1-methylpropyl]-3,6,9,15,18,21,25,28,31,34,42-undecaoxo-27-(propoxymethyl)-2-(p-tolylmethyl)spiro[1,4,7,10,16,19,22,26,29,32,35-undecazatricyclo[34.5.1.0^10,14]dotetracont-38-ene-17,1′-cyclobutane]-23-carboxamide] | 0.049 nM | A (a compound having 10 or more and less than 20 is denoted as A) | B (a compound having 3 or more and less than 10 is denoted as B) | 5.1 nM | – | – | – | – |
| CCO[C@@H]1C[C@H]2C(=O)NC3(CCC3)C(=O)N(C)[C@@H](C3CCCC3)C(=O)N(C)[C@H](C(=O)N3CCCCC3)CC(=O)N(C)[C@@H](CC3CC3)C(=O)N[C@@H]([C@@H](C)CC)C(=O)N(C)CC(=O)N(C)[C@H]3C/C=C\CCN(C3=O)[C@@H](Cc3ccc(C(F)(F)F)cc3)C(=O)N(C)CC(=O)N[C@@H](CCc3cc(F)c(C(F)(F)F)c(F)c3)C(=O)N2C1 [PP1291] | 0.24 nM | A (a compound having 10 or more and less than 20 is denoted as A) | A (a compound having 10 or more and less than 20 is denoted as A) | 16.7 nM | – | – | – | – |
| CCCOC[C@H]1C(=O)N[C@@H]([C@@H](C)CC)C(=O)N2CCC[C@H]2C(=O)N(C)[C@H]2C/C=C\CCN(C2=O)[C@@H](Cc2ccc(C)cc2)C(=O)N(C)CC(=O)N[C@@H](CCc2cc(F)c(C(F)(F)F)c(F)c2)C(=O)N2C[C@H](C)C[C@H]2C(=O)NC2(CC(C)(C)C2)C(=O)N(C)[C@@H](C2CCCC2)C(=O)N(C)[C@H](C(=O)N(C)CC)CC(=O)N1C [PP2430] | – | – | – | 33.2 nM | 1.4 nM | AA (a compound having 20 or more is denoted as AA) | A (a compound having 10 or more and less than 20 is denoted as A) | – |
